The text below walks through data of US20170283440A1, “CARM1 INHIBITORS AND USES THEREOF” (Epizyme, Inc., priority 2014, published 2017).

The target of one test is T1, Human CARM1 (PRMT4) (Homo sapiens, UniProt Q86X55).
T1 construct: Flag-CARM1-His was eluted with 200 ug/ml FLAG peptide in buffer A; made in house; host or cells: HEK 293F cells infected with recombinant baculovirus (pFastBacMam)
As to the kind of experiment: CARM1 enzyme assay on peptide substrate (3H-SAM Flashplate). Particulars: CARM1 0.25 nM, 3H-SAM 30 nM, peptide 250 nM; read-out: Biochem IC50. In kind it is biochemical. The source says: S-adenosylmethionine (SAM), S-adenosylhomocysteine (SAH), bicine, Tween20, dimethylsulfoxide (DMSO), bovine skin gelatin (BSG), sodium butyrate and Tris(2-carboxyethyl)phosphine hydrochloride solution (TCEP) were purchased from Sigma-Aldrich at the highest level of purity possible. ^3H-SAM was purchase from American Radiolabeled Chemicals with a specific activity of 80 Ci/mmol. 384-well streptavidin Flashplates were purchased from PerkinElmer.
Peptide representative of human histone H3 residues 16-30 was synthesized with an N-terminal linker-affinity tag motif and a C-terminal amide cap by 21st Century Biochemicals. The peptide was purified by high-performance liquid chromatography (HPLC) to greater than 95% purity and confirmed by liquid chromatography mass spectrometry (LC-MS). The sequence was Biot-Ahx-[…]-amide and contained a monomethylated arginine at position 26 (SEQ ID NO.:1).
Human CARM1 (PRMT4) (NM_199141.1) transcript clone was amplified from an HEK 293 cDNA library, incorporating a flanking 5′ sequence encoding a FLAG tag ([…]) (SEQ ID NO.:2) fused directly to Ala 2 of CARM1 and 3′ sequence encoding a hexa His sequence ([…]) (SEQ ID NO.:3) fused directly to Ser 608. The gene sequence encoding isoform1 containing a deletion of amino acids 539-561 was amplified subsequently and subcloned into pFastBacMam (Viva Biotech).
Recombinant baculovirus were generated according to Bac-to-Bac kit instructions (Life Technologies). Protein over-expression was accomplished by infecting exponentially growing HEK 293F cell culture at 1.3×10^6 cell/ml with virus (MOI=10) in the presence of 8 mM sodium butyrate. Infections were carried out at 37° C. for 48 hours, harvested by centrifugation, and stored at −80° C. for purification.
Column was washed with 500 mM NaCl in buffer A and Flag-CARM1-His was eluted with 200 ug/ml FLAG peptide in buffer A. Pooled fractions were dialyzed in 20 mM Tris, 150 mM NaCl, 5% glycerol and 1 mM DTT, pH 7.8. The purity of recovered protein was 94.
The assays were all performed in a buffer consisting of 20 mM Bicine (pH=7.6), 1 mM TCEP, 0.005% BSG, and 0.002% Tween 20, prepared on the day of use. Compounds in 100% DMSO (1 ul) were spotted into a polypropylene 384-well V-bottom plates (Greiner) using a Platemate Plus outfitted with a 384-channel head (Thermo Scientific). DMSO (1 ul) was added to Columns 11, 12, 23, 24, rows A-H for the maximum signal control and 1 ul of SAH, a known product and inhibitor of CARM1, was added to columns 11, 12, 23, 24, rows I—P for the minimum signal control. A cocktail (40 ul) containing the CARM1 enzyme was added by Multidrop Combi (Thermo-Fisher). The compounds were allowed to incubate with CARM1 for 30 min at room temperature, then a cocktail (10 ul) containing ^3H-SAM and peptide was added to initiate the reaction (final volume=51 ul). The final concentrations of the components were as follows: CARM1 was 0.25 nM, ^3H-SAM was 30 nM, peptide was 250 nM, SAH in the minimum signal control wells was 1 mM, and the DMSO concentration was 2%. The assays were stopped by the addition of non-radiolabeled SAM (10 ul) to a final concentration of 300 uM, which dilutes the ^3H-SAM to a level where its incorporation into the peptide substrate is no longer detectable. 50 ul of the reaction in the 384-well polypropylene plate was then transferred to a 384-well Flashplate and the biotinylated peptides were allowed to bind to the streptavidin surface for at least 1 hour before being washed once with 0.1% Tween20 in a Biotek ELx405 plate washer. The plates were then read in a PerkinElmer TopCount plate reader to measure the quantity of ^3H-labeled peptide bound to the Flashplate surface, measured as disintegrations per minute (dpm) or alternatively, referred to as counts per minute (cpm).
where dpm=disintegrations per minute, cmpd=signal in assay well, and min and max are the respective minimum and maximum signal controls. […]

In test [1] the test system is asymmetric di-methyl PABP1 in RKO cells. Description: RKO methylation assay (In Cell Western for asymmetric di-methyl PABP1). Format: cell-based. Conditions: 48 hours incubation, read-out: Cellular IC50. The source says:
RKO adherent cells were purchased from ATCC (American Type Culture Collection), Manassas, Va., USA. DMEM/Glutamax medium, penicillin-streptomycin, heat inactivated fetal bovine serum, 0.05% trypsin and D-PBS were purchased from Life Technologies, Grand Island, N.Y., USA. Odyssey blocking buffer, 800CW goat anti-rabbit IgG (H+L) antibody, and Licor Odyssey infrared scanner were purchased from Licor Biosciences, Lincoln, Nebr., USA. Asymmetric di-methyl PABP1 antibody was purchased from Cell Signaling Technology, Danvers, Mass., USA. Methanol was purchased from VWR, Franklin, Mass., USA. 10% Tween 20 was purchased from KPL, Inc., Gaithersburg, Md., USA. Paraformaldehyde (PFA) was purchased from EM Sciences. DRAQ5 was purchased from Biostatus Limited, Leicestershire, UK.
RKO adherent cells were maintained in growth medium (DMEM/Glutamax medium supplemented with 10% v/v heat inactivated fetal bovine serum and 100 units/mL penicillin-streptomycin) and cultured at 37° C. under 5% CO2.
Compound (100 nL) from a 96-well source plate was added directly to 384 well cell plate. Plates were incubated at 37° C., 5% CO2 for 48 hours. After two days of incubation, plates were brought to room temperature outside of the incubator for ten minutes and blotted on paper towels to remove cell media. Cells were fixed for 20 minutes at room temperature by adding 50 ul of 8% PFA followed by aspiration of supernatant with the Biotek EL406 plate washer. Cells were then permeabilized by addition of 50 μL of ice cold 100% methanol directly to each well and incubated for 30 min at room temperature. After 30 min, plates were transferred to a Biotek EL406 plate washer and washed 2 times with 100 μL per well of wash buffer (IX PBS). Next 60 μL per well of Odyssey blocking buffer (Odyssey Buffer with 0.1% Tween 20 (v/v)) were added to each plate and incubated 1 hour at room temperature. Blocking buffer was removed and 20 μL per well of primary antibody was added (asymmetric-methyl PABP1) diluted 1:400 in Odyssey buffer with 0.1% Tween 20 (v/v)) and plates were incubated overnight (16 hours) at 4° C. Plates were washed 5 times with 100 μL per well of wash buffer. Next 20 μL per well of secondary antibody was added (1:800 800CW goat anti-rabbit IgG (H+L) antibody, 1:2000 DRAQ5 in Odyssey buffer with 0.1% Tween 20 (v/v)) and incubated for 1 hour at room temperature. The plates were washed 5 times with 100 μL per well wash buffer then 2 times with 100 μL per well of water. Plates were allowed to dry at room temperature then imaged on the Licor Odyssey machine which measures integrated intensity at 700 nm and 800 nm wavelengths. Both 700 and 800 channels were scanned.
First, the ratio for each well was determined by:
Each plate included fourteen control wells of DMSO only treatment (minimum inhibition) as well as fourteen control wells for maximum inhibition treated with 20 μM of a reference compound. The average of the ratio values for each control type was calculated and used to determine the percent […] for each test well in the plate. Reference compound was serially diluted three-fold in DMSO for a total of nine test concentrations, beginning at 20 μM.
Percent inhibition was determined and IC50 curves were generated using triplicate wells per concentration of compound.

Like-named read-outs stand apart in the source and are kept apart here. Some results are limits rather than exact numbers.

Usually IC50 stands for the point on the concentration scale where inhibition reaches its midpoint.

T1 sequence (Q86X55 other isoform, or with tags, fused parts or gaps): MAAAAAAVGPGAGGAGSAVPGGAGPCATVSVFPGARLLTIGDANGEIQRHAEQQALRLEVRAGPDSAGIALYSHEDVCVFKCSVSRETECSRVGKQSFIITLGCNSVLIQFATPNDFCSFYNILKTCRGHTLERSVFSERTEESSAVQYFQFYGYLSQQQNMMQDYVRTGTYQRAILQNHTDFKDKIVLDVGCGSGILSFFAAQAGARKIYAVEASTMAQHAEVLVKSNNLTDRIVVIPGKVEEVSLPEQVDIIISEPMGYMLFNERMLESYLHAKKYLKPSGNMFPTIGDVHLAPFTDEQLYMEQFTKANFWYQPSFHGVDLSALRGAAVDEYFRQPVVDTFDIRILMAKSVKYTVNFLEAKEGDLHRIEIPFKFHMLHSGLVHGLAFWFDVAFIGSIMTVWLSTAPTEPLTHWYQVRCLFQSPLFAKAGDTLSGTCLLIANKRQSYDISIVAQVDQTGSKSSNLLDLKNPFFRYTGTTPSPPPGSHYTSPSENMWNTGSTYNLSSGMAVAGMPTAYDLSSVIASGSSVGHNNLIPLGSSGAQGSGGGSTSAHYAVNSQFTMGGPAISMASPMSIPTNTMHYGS

Regarding `CNCC(O)COc1cc(-c2cc(N3CCOCC3)n3ncc(C(C)C)c3n2)cc(C2CC2)c1` (centres unmarked) [Example 3-6], the IC50 was below 0.1 µM on Human CARM1 (PRMT4) and above 20 µM in test [1] (Homo sapiens).
Consider `CNCC(O)COc1cc(OC)cc(-c2cc(N3CCOCC3)nc3c(C4CC4)cnn23)c1` (centres unmarked) [Example 3-7], for which the values for the IC50 (at Human CARM1 (PRMT4); in test [1] (Homo sapiens)) were below 0.1 µM and 10 to 20 µM, respectively.
Take `CNCC(O)COc1cccc(-c2cc(NCC#N)c3cnn(C(C)C)c3n2)c1` (centres unmarked) [Example 3-8]: the IC50 on Human CARM1 (PRMT4) is 0.1 to 1 µM; in test [1] (Homo sapiens), above 20 µM.
For `CNCC(O)COc1cccc(-c2cc(N(C)Cc3ccccn3)c3cnn(C(C)C)c3n2)c1` (centres unmarked) [Example 3-9] the same measures were below 0.1 µM and 10 to 20 µM.
For `CNCC(O)COc1cccc(-c2cc(NC3CCOCC3)c3c(C)nn(C(C)C)c3n2)c1` (centres unmarked) [Example 4-2] the same measures were below 0.1 µM and 10 to 20 µM.
For `Cc1cc(OCC(O)CN)cc(-c2cc(N3CCOCC3)c3cnn(C(C)C)c3n2)c1` (centres unmarked) [Example 4-4] the same measures were below 0.1 µM and 10 to 20 µM.
On to `CNCC(O)COc1cccc(-c2cc(-c3cnc4[nH]ccc4c3)nc3c(C(C)C)cnn23)c1` (centres unmarked) [Example 4-7], for which the results for the IC50 (at Human CARM1 (PRMT4); in test [1] (Homo sapiens)) were below 0.1 µM and above 20 µM, respectively.
Consider `CC(C)c1cnn2c(N3CCOCC3)cc(-c3cccc(OCC(O)CN)c3)nc12` (centres unmarked) [Example 4-8], for which the IC50 on Human CARM1 (PRMT4) is below 0.1 µM; in test [1] (Homo sapiens), above 20 µM.
`CNCC(O)COc1cccc(-c2cc(N(C)C3CCOCC3)nc(N3CCOCC3)n2)c1` (centres unmarked) [Example 4-9]: the IC50 on Human CARM1 (PRMT4) is below 0.1 µM; in test [1] (Homo sapiens) it was above 20 µM.
For `CNCC(O)COc1cccc(-c2cc(NC3CCOCC3)c3c(C#N)nn(C(C)C)c3n2)c1` (centres unmarked) [Example 5-2], the IC50 on Human CARM1 (PRMT4) was 0.1 to 1 µM; in test [1] (Homo sapiens) it was above 20 µM.
The corresponding values for `COc1cc(OCC(O)CN)cc(-c2cc(N3CCOCC3)c3cnn(C(C)C)c3n2)c1` (centres unmarked) [Example 5-4] are below 0.1 µM and 10 to 20 µM.
For `CNCC(O)COc1cccc(-c2nc(N3[C@@H]4CC[C@H]3COC4)c3cnn(C4CC4)c3n2)c1` (some centres unmarked) [Example 5-5] the same measures were 0.1 to 1 µM and above 20 µM.
For the compound `CNCC(O)COc1cc(OC)cc(-c2cc(C)n3ncc(C(C)C)c3n2)c1` (centres unmarked) [Example 5-6], the IC50 on Human CARM1 (PRMT4) was below 0.1 µM; in test [1] (Homo sapiens), above 20 µM.
Take `CC(C)n1ncc2c(N[C@@H]3CO[C@H]4OCC[C@H]43)cc(-c3cccc(OCC(O)CN)c3)nc21` (some centres unmarked) [Example 5-8]: the results for the IC50 (on Human CARM1 (PRMT4); in test [1] (Homo sapiens)) were below 0.1 µM and above 20 µM, respectively.
Consider `CNCC(O)COc1cc(OC)cc(-c2cc(-c3cnc4[nH]ccc4c3)c3cnn(C(C)C)c3n2)c1` (centres unmarked) [Example 5-9], for which the IC50 was below 0.1 µM on Human CARM1 (PRMT4) and above 20 µM in test [1] (Homo sapiens).
The corresponding values for `CNCC(O)COc1cccc(-c2cc(N(C)C3CCOCC3)c3c(C)nn(C(C)C)c3n2)c1` (centres unmarked) [Example 6-2] are below 0.1 µM and 10 to 20 µM.
In the case of `CNCC(O)COc1cc(O)cc(-c2cc(N3CCOCC3)c3cnn(C(C)C)c3n2)c1` (centres unmarked) [Example 6-4], the results for the IC50 (on Human CARM1 (PRMT4); in test [1] (Homo sapiens)) were below 0.1 µM and above 20 µM, respectively.
For `CC(C)n1ncc2c(N3CCOCC3)nc(-c3cccc(OCC(O)CN)c3)nc21` (centres unmarked) [Example 6-5] the same measures were below 0.1 µM and above 20 µM.
As for `CC(C)n1ncc2c(N[C@@H]3CO[C@H]4OCC[C@H]43)cc(-c3cccc(OCC(O)CN)c3)nc21` (some centres unmarked) [Example 6-8], the IC50 on Human CARM1 (PRMT4) was below 0.1 µM; in test [1] it was above 20 µM.
`CNCC(O)COc1cccc(-c2cc(NCc3c(C)cc(C)nc3OC)c3cnn(C(C)C)c3n2)c1` (centres unmarked) [Example 6-9]: the IC50 at Human CARM1 (PRMT4) is below 0.1 µM; in test [1] (Homo sapiens), above 20 µM.
Take `CNCC(O)COc1cc(N)cc(-c2cc(NC3CCOCC3)c3cnn(C(C)C)c3n2)c1` (centres unmarked) [Example 7-4]: the figures for the concentration for half-maximal inhibition (IC50) (at Human CARM1 (PRMT4); in test [1] (Homo sapiens)) were below 0.1 µM and above 20 µM, respectively.
Take `CC(C)n1ncc2c(NC3CCOC3)nc(-c3cccc(OCC(O)CN)c3)nc21` (centres unmarked) [Example 7-5]: the half-inhibitory concentration (IC50) at Human CARM1 (PRMT4) is below 0.1 µM; in test [1] (Homo sapiens), above 20 µM.
`CNCC(O)COc1cccc(-c2cc(N3CCOCC3)n3ncc(C(C)C)c3n2)c1` (centres unmarked) [Example 7-6]: the half-inhibitory concentration (IC50) on Human CARM1 (PRMT4) is 0.1 to 1 µM; in test [1] (Homo sapiens), above 20 µM.
`CC(C)n1ncc2c(N3CCOCC3)cc(-c3cc(F)cc(OCC(O)CN)c3)nc21` (centres unmarked) [Example 7-8]: the figures for the IC50 (on Human CARM1 (PRMT4); in test [1] (Homo sapiens)) were below 0.1 µM and above 20 µM, respectively.
In the case of `CNCC(O)COc1cccc(-c2nc(N3CC4CCC(C3)O4)c3cnn(C4CC4)c3n2)c1` (centres unmarked) [Example 7-9], the IC50 on Human CARM1 (PRMT4) was below 0.1 µM; in test [1] (Homo sapiens) it was 10 to 20 µM.
With `CNCC(O)COc1cc(OC)cc(-c2cc(N3CCOCC3)c3cnn(C(C)C)c3n2)c1` (centres unmarked) [Example 8-4], the IC50 was below 0.1 µM on Human CARM1 (PRMT4) and 10 to 20 µM in test [1] (Homo sapiens).
For `CNCC(O)COc1cccc(-c2nc(N3CCOCC3)c3cnn(C(C)C)c3n2)c1` (centres unmarked) [Example 8-5], the 50% inhibitory concentration (IC50) was below 0.1 µM at Human CARM1 (PRMT4) and 10 to 20 µM in test [1] (Homo sapiens).
In the case of `CNC[C@@H](O)COc1cccc(-c2cc(N3CCOCC3)n3ncc(C(C)C)c3n2)c1` [Example 8-6], the IC50 at Human CARM1 (PRMT4) is below 0.1 µM; in test [1] (Homo sapiens), above 20 µM.
